target: T1, TLR7 (Homo sapiens, UniProt Q9NYK1); test: huPBMC TLR7 Antagonist IFNα Assay; format: cell-based; settings: human PBMCs stimulated with ssRNA40 10 μg/mL (DOTAP), 14-16 hrs; IFNα2b AlphaLISA read-out
T1 construct: Fresh blood was collected from normal human donors; endogenous in cells; host or cells: human PBMCs from fresh donor blood
T1 sequence (Q9NYK1 27-1049): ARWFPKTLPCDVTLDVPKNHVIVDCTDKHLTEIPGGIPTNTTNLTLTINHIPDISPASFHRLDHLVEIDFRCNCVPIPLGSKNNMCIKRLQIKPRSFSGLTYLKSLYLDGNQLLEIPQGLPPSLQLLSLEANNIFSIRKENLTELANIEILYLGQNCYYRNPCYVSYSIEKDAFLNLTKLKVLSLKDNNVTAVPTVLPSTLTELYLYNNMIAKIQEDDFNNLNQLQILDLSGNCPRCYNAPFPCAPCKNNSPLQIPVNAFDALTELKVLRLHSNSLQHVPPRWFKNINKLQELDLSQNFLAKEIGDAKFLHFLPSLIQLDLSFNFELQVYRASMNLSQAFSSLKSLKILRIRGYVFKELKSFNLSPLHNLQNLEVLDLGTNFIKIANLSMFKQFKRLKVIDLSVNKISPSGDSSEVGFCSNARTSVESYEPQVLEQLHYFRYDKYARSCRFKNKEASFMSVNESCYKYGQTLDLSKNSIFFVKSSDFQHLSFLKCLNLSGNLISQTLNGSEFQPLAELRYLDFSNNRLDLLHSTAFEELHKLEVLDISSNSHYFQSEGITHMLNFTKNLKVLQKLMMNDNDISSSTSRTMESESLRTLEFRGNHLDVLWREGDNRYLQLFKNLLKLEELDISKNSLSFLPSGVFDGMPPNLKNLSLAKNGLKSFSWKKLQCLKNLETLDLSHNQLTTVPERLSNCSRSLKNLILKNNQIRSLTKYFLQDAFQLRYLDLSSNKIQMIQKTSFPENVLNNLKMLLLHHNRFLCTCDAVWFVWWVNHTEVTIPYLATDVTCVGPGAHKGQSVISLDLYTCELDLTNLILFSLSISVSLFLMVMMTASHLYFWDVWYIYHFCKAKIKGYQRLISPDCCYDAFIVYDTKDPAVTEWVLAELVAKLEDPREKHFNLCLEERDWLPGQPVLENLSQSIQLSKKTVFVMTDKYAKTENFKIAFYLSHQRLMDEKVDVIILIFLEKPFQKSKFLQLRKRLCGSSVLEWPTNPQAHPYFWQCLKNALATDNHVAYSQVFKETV
Summary of the method: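 Human PBMCs from fresh donor blood (150,000 cells/well) stimulated 14–16 h at 37 °C with DOTAP-complexed ssRNA40 (final 1 μg/ml for TLR8, 10 μg/mL for TLR7) or ODN2216 (final 0.3 μM, TLR9), 0.25% DMSO, ten-point 1/3 compound dilutions. Supernatant IL-6 read by HTRF (TLR8); IFNα by IFNα2b AlphaLISA (TLR7/TLR9).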

Row | IC50 [nM] | Structure (SMILES)
1 | 25 | Cc1cc(N2CCc3c(c(C)nn3CC34CCC(N)(CC3)CC4)C2)c2cnn(C)c2n1 [Compound No. 1, 4-((5-(1,6-dimethyl-1H-pyrazolo[3,4-b]pyridin-4-yl)-3-methyl-4,5,6,7-tetrahydro-1H-pyrazolo[4,3-c]pyridin-1-yl)methyl)bicyclo[2.2.2]octan-1-amine]
2 | 38 | Cc1cc(N2CCc3c(c(C)nn3CC34CCC(N)(CC3)CC4)C2)c2cn[nH]c2n1 [Compound No. 2, 4-((3-methyl-5-(6-methyl-1H-pyrazolo[3,4-b]pyridin-4-yl)-4,5,6,7-tetrahydro-1H-pyrazolo[4,3-c]pyridin-1-yl)methyl)bicyclo[2.2.2]octan-1-amine]
3 | 20 | Cc1cc(N2CCc3c(c(C)nn3CC34CCC(N(C)C(=O)OC(C)(C)C)(CC3)CC4)C2)c2cnn(C)c2n1 [Compound No. 49, tert-butyl (4-((5-(1,6-dimethyl-1H-pyrazolo[3,4-b]pyridin-4-yl)-3-methyl-4,5,6,7-tetrahydro-1H-pyrazolo[4,3-c]pyridin-1-yl)methyl)bicyclo[2.2.2]octan-1-yl)(methyl)carbamate]
4 | 6 | CNC12CCC(Cn3nc(C)c4c3CCN(c3cc(C)nc5c3cnn5C)C4)(CC1)CC2 [Compound No. 50, 4-((5-(1,6-dimethyl-1H-pyrazolo[3,4-b]pyridin-4-yl)-3-methyl-4,5,6,7-tetrahydro-1H-pyrazolo[4,3-c]pyridin-1-yl)methyl)-N-methylbicyclo[2.2.2]octan-1-amine]
5 | 7 | Cc1cc(N2CCc3c(c(C)nn3CC34CCC(NC(=O)OC5(C)CC5)(CC3)CC4)C2)c2cnn(C)c2n1 [Compound No. 51, 1-methylcyclopropyl (4-((5-(1,6-dimethyl-1H-pyrazolo[3,4-b]pyridin-4-yl)-3-methyl-4,5,6,7-tetrahydro-1H-pyrazolo[4,3-c]pyridin-1-yl)methyl)bicyclo[2.2.2]octan-1-yl)carbamate]
6 | 843 | COc1ccc(Cn2ncc3c(N4CCc5c(c(C)nn5CC56CCC(N)(CC5)CC6)C4)cc(C)nc32)cc1 [Compound No. 53, 4-((5-(1-(4-methoxybenzyl)-6-methyl-1H-pyrazolo[3,4-b]pyridin-4-yl)-3-methyl-4,5,6,7-tetrahydro-1H-pyrazolo[4,3-c]pyridin-1-yl)methyl)bicyclo[2.2.2]octan-1-amine]
7 | 3 | Cc1cc(N2CCc3c(c(C)nn3CC34CCC(N5CCCC5)(CC3)CC4)C2)c2cnn(C)c2n1 [Compound No. 58, 5-(1,6-dimethyl-1H-pyrazolo[3,4-b]pyridin-4-yl)-3-methyl-1-((4-(pyrrolidin-1-yl)bicyclo[2.2.2]octan-1-yl)methyl)-4,5,6,7-tetrahydro-1H-pyrazolo[4,3-c]pyridine]
8 | 4 | Cc1cc(N2CCc3c(c(C)nn3CC34CCC(N5CCOCC5)(CC3)CC4)C2)c2cnn(C)c2n1 [Compound No. 59, 4-(4-((5-(1,6-dimethyl-1H-pyrazolo[3,4-b]pyridin-4-yl)-3-methyl-4,5,6,7-tetrahydro-1H-pyrazolo[4,3-c]pyridin-1-yl)methyl)bicyclo[2.2.2]octan-1-yl)morpholine]
9 | 9 | COCCNC12CCC(Cn3nc(C)c4c3CCN(c3cc(C)nc5c3cnn5C)C4)(CC1)CC2 [Compound No. 69, 4-((5-(1,6-dimethyl-1H-pyrazolo[3,4-b]pyridin-4-yl)-3-methyl-4,5,6,7-tetrahydro-1H-pyrazolo[4,3-c]pyridin-1-yl)methyl)-N-(2-methoxyethyl)bicyclo[2.2.2]octan-1-amine]
10 | 10 | Cc1cc(N2CCc3c(c(C)nn3CC34CCC(N(C)C5COC5)(CC3)CC4)C2)c2cnn(C)c2n1 [Compound No. 77, N-(4-((5-(1,6-dimethyl-1H-pyrazolo[3,4-b]pyridin-4-yl)-3-methyl-4,5,6,7-tetrahydro-1H-pyrazolo[4,3-c]pyridin-1-yl)methyl)bicyclo[2.2.2]octan-1-yl)-N-methyloxetan-3-amine]

Source: patent US20240376099A1, “COMPOUNDS AND COMPOSITIONS AS INHIBITORS OF ENDOSOMAL TOLL-LIKE RECEPTORS” (Novartis AG, priority 2016, published 2024)
